Data from PMC3759295 (Toxicology letters, 2013).

Test system: CYP1A1 mRNA in primary human hepatocytes
Assay: CYP1A1 mRNA expression in primary human hepatocytes
Type: cell-based
[1] = hepatocyte culture LH45, 10 µM, 24 h
[2] = hepatocyte culture LH45, 50 µM, 24 h
[3] = hepatocyte culture LH46, 10 µM, 24 h
[4] = hepatocyte culture LH46, 50 µM, 24 h
[5] = hepatocyte culture LH47, 50 µM, 24 h
[6] = hepatocyte culture LH48 (so in the source), 50 µM, 24 h

Structure (SMILES)	CYP1A1 mRNA fold induction over the vehicle-treated cells, LH45 (10 µM)	CYP1A1 mRNA fold induction over the vehicle-treated cells, LH46 (10 µM)	CYP1A1 mRNA fold induction over the vehicle-treated cells, LH45 (50 µM)	CYP1A1 mRNA fold induction over the vehicle-treated cells, LH46 (50 µM)	CYP1A1 mRNA fold induction over the vehicle-treated cells, LH47 (50 µM)	CYP1A1 mRNA fold induction over the vehicle-treated cells, LH48 (50 µM)	CYP1A1 mRNA fold induction over the vehicle-treated cells, LH45 [1]	CYP1A1 mRNA fold induction over the vehicle-treated cells, LH45 [2]	CYP1A1 mRNA fold induction over the vehicle-treated cells, LH46 [3]	CYP1A1 mRNA fold induction over the vehicle-treated cells, LH46 [4]	CYP1A1 mRNA fold induction over the vehicle-treated cells, LH47 [5]	CYP1A1 mRNA fold induction over the vehicle-treated cells, LH48 [6]
C[C@@H]1O[C@@H](OC[C@H]2O[C@@H](Oc3cc4c(O)cc(O)cc4[o+]c3-c3ccc(O)c(O)c3)[C@H](O)[C@@H](O)[C@@H]2O)[C@H](O)[C@H](O)[C@H]1O.[Cl-] [CYA-2, cyanidin-3-O-rutinoside chloride]	2.34 ± 0.28 fold	0.55 ± 0.03 fold	0.69 ± 0.25 fold	0.91 ± 0.04 fold	0.57 ± 0.09 fold	0.07 ± 0.02 fold						
OC[C@H]1O[C@@H](O[C@H]2[C@@H](Oc3cc4c(O)cc(O)cc4[o+]c3-c3ccc(O)c(O)c3)O[C@H](CO)[C@@H](O)[C@@H]2O)[C@H](O)[C@@H](O)[C@@H]1O.[Cl-] [CYA-4, cyanidin-3-O-sophoroside chloride]	1.31 ± 0.25 fold	2.97 ± 0.39 fold	0.46 ± 0.03 fold	0.28 ± 0.05 fold	0.51 ± 0.16 fold	0.05 ± 0.02 fold						
Oc1cc(O)c2cc(O[C@@H]3OC[C@H](O)[C@H](O)[C@H]3O)c(-c3ccc(O)c(O)c3)[o+]c2c1.[Cl-] [CYA-5, cyanidin-3-O-arabinoside chloride]	0.69 ± 0.06 fold	0.67 ± 0.07 fold	1.16 ± 0.17 fold	0.61 ± 0.08 fold	0.34 ± 0.11 fold	0.07 ± 0.01 fold						
C[C@@H]1O[C@@H](Oc2cc3c(O)cc(O)cc3[o+]c2-c2ccc(O)c(O)c2)[C@H](O)[C@H](O)[C@H]1O.[Cl-] [CYA-6, cyanidin-3-O-rhamnoside chloride]	0.77 ± 0.12 fold	1.19 ± 0.14 fold	0.73 ± 0.04 fold	1.36 ± 0.03 fold	0.31 ±0.03 fold	0.07 ± 0.00 fold						
OC[C@H]1O[C@@H](Oc2cc3c(O)cc(O)cc3[o+]c2-c2ccc(O)c(O)c2)[C@H](O)[C@@H](O)[C@H]1O.[Cl-] [CYA-7, cyanidin-3-O-galactoside chloride]	0.65 ± 0.11 fold	2.62 ± 0.41 fold	0.34 ± 0.06 fold	1.85 ± 0.09 fold	0.25 ± 0.02 fold	0.05 ± 0.02 fold						
OC[C@H]1O[C@@H](Oc2cc3c(O)cc(O)cc3[o+]c2-c2ccc(O)c(O)c2)[C@H](O[C@@H]2OC[C@@H](O)[C@H](O)[C@H]2O)[C@@H](O)[C@@H]1O.[Cl-] [CYA-8, cyanidin-3-O-sambubioside chloride]	0.26 ± 0.01 fold	1.48 ± 1.14 fold	0.20 ± 0.04 fold	1.72 ± 0.72 fold	2.44 fold	0.02 ± 0.00 fold						
OC[C@H]1O[C@@H](Oc2cc3c(O)cc(O)cc3[o+]c2-c2ccc(O)c(O)c2)[C@H](O[C@@H]2OC[C@@H](O)[C@H](O)[C@H]2O)[C@@H](O)[C@H]1O.[Cl-] [CYA-9, cyanidin-3-O-lathyroside chloride]	0.32 ± 0.12 fold	0.91 ± 0.11 fold	0.61 ± 0.05 fold	1.77 ± 0.49 fold	0.11 ± 0.17 fold	0.09 ± 0.05 fold						
OC[C@H]1O[C@@H](Oc2cc3c(O)cc(O)cc3[o+]c2-c2cc(O)c(O)c(O)c2)[C@H](O)[C@@H](O)[C@@H]1O.[Cl-] [DEL-1, delphinidin-3-O-glucoside chloride]							1.80 ± 0.11 fold	1.50 ± 0.21 fold	1.99 ± 0.12 fold	0.80 ± 0.07 fold	1.01 ± 0.12 fold	0.01 ± 0.00 fold
C[C@@H]1O[C@@H](OC[C@H]2O[C@@H](Oc3cc4c(O)cc(O)cc4[o+]c3-c3cc(O)c(O)c(O)c3)[C@H](O)[C@@H](O)[C@@H]2O)[C@H](O)[C@H](O)[C@H]1O.[Cl-] [DEL-2, delphinidin-3-O-rutinoside chloride]							1.53 ± 0.36 fold	0.53 ± 0.11 fold	1.34 ± 0.10 fold	0.68 ± 0.01 fold	0.23 ± 0.05 fold	0.02 ± 0.01 fold
OCC1OC(Oc2cc3c(OC4OC(CO)C(O)C(O)C4O)cc(O)cc3[o+]c2-c2cc(O)c(O)c(O)c2)C(O)C(O)C1O.[Cl-] (stereo not drawn) [DEL-3, delphinidin-3,5-di-O-glucoside chloride]							0.82 ± 0.02 fold	1.70 ± 3.26 fold	0.85 ± 0.06 fold	1.14 ± 0.21 fold	0.39 ± 0.06 fold	0.02 ± 0.01 fold
OC[C@H]1O[C@@H](Oc2cc3c(O)cc(O)cc3[o+]c2-c2cc(O)c(O)c(O)c2)[C@H](O[C@@H]2OC[C@@H](O)[C@H](O)[C@H]2O)[C@@H](O)[C@@H]1O.[Cl-] [DEL-4, delphinidin-3-O-sambubioside chloride]							0.26 ± 0.21 fold	0.34 ± 0.09 fold	1.11 ± 0.20 fold	1.31 ± 0.05 fold	0.21 ± 0.26 fold	0.07 ± 0.01 fold
C[C@@H]1O[C@@H](Oc2cc3c(O)cc(O)cc3[o+]c2-c2cc(O)c(O)c(O)c2)[C@H](O)[C@H](O)[C@H]1O.[Cl-] [DEL-5, delphinidin-3-O-rhamnoside chloride]							0.48 ± 0.01 fold	0.40 ± 0.09 fold	0.98 ± 0.15 fold	1.19 ± 0.18 fold	0.26 ± 0.01 fold	0.01 ± 0.01 fold
COc1cc(-c2[o+]c3cc(O)cc(O[C@@H]4O[C@H](CO)[C@@H](O)[C@H](O)[C@H]4O)c3cc2O[C@@H]2O[C@H](CO)[C@@H](O)[C@H](O)[C@H]2O)cc(OC)c1O.[Cl-] [MAL-2, malvidin-3,5-di-O-glucoside chloride]							1.14 ± 0.28 fold	0.44 ± 0.01 fold	1.72 ± 0.39 fold	1.64 ± 0.38 fold	0.56 ± 0.07 fold	0.93 ± 0.09 fold
COc1cc(-c2[o+]c3cc(O)cc(O)c3cc2O[C@@H]2O[C@H](CO)[C@H](O)[C@H](O)[C@H]2O)cc(OC)c1O.[Cl-] [MAL-3, malvidin-3-O-galactoside chloride]							0.12 ± 0.00 fold	0.28 ± 0.04 fold	0.87 ± 0.02 fold	1.32 ± 0.05 fold	0.54 ± 0.02 fold	0.33 ± 0.02 fold
